From patent US20070117770A1, “Human ribosomal DNA (rDNA) and ribosomal RNA (rRNA) nucleic acids and uses thereof” (Cylene Pharmaceuticals, Inc., priority 2005, published 2007) come the findings set out here.

Assay [1] addresses ALK4(h) (Homo sapiens, UniProt P36896). The assay is described as follows: Protein kinase inhibition assay. In kind it is biochemical. To be noted: read-out: percent residual activity of ALK4(h). The procedure: (§1) Certain compounds were tested for activity in protein kinase inhibition assays. All substrates were dissolved and diluted to working stocks in de-ionized water, apart from histone H1 (10× working stock in 20 mM MOPS pH 7.0), PDKtide (10× working stock in 50 mM Tris pH 7.0) ATF2 (which is typically stored at a 20× working stock in 50 mM Tris pH 7.5, 150 mM NaCl, 0.1 mM EGTA, 0.03% Brij-35, 50% glycerol, 1 mM benzamidine, 0.2 mM PMSF and 0.1% R-mercaptoethanol), KKLNRTLSFAEPG (SEQ ID NO:203) and RRRLSFAEPG (SEQ ID NO:204) (50 mM HEPES pH 7.4) and GGEEEEYFELVKKKK (SEQ ID NO:205) (20 mM MOPS pH 7.0). All kinases were pre-diluted to a 10× working concentration prior to addition into the assay. The composition of the dilution buffer for each kinase is detailed below.
(§2) In a final reaction volume of 25 μl, ALK4 (h) (5-10 mU) is incubated with 8 mM MOPS pH 7.0, 0.2 mM EDTA, 2 mg/ml casein, 10 mM MgAcetate and [gamma-33P-ATP] (specific activity approx. 500 cpm/pmol, concentration as required). The reaction is initiated by the addition of the MgATP mix. After incubation for 40 minutes at room temperature, the reaction is stopped by the addition of 5 μl of a 3% phosphoric acid solution. 10 μl of the reaction is then spotted onto a P30 filtermat and washed three times for 5 minutes in 75 mM phosphoric acid and once in methanol prior to drying and scintillation counting.

Assay [2] deals with T1, nucleolin/HP pre-rRNA region (Homo sapiens, UniProt P19338).
T1 construct: without the N-terminal acidic stretches domain
T1 sequence (P19338 284-710 limits assumed): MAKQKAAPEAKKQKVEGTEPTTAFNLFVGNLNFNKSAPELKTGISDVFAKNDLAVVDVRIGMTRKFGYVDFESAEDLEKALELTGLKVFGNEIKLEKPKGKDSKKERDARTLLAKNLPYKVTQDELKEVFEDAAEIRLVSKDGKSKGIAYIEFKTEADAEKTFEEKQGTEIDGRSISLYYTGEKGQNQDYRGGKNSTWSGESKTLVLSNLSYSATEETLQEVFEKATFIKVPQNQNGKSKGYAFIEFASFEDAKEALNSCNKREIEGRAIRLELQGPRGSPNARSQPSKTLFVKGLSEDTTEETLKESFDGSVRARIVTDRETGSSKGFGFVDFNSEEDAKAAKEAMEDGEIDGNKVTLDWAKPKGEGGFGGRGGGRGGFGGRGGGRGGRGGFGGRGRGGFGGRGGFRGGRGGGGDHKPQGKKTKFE
The assay is described as follows: EMSA, nucleolin/HP ligand interaction. In kind it is binding. Particulars: nucleolin ~250 nM, 32P-labeled ligand 10 or 250 nM, 30 minutes (FIG. 1, FIG. 2). The procedure: The following assays assessed effects of compounds on interactions between nucleolin and nucleic acid ligands capable of forming quadruplex (QP) and hairpin (HP) secondary structures. Nucleic acid ligands tested were a cMyc QP DNA having nucleotide sequence 5′-[…]-3′ (SEQ ID NO: 176) and a HP pre-rRNA region to which nucleolin binds, having the sequence 5′-[…]-3′ (SEQ ID NO: 177). In the assays, recombinant nucleolin (˜250 nM), which was fused to maltose binding protein and had the sequence under accession number NM_005381 without the N-terminal acidic stretches domain, was incubated with each of the two ^32P-labeled nucleic acid ligands (10 or 250 nM). Nucleolin and the nucleic acid ligand were incubated in the presence or absence of a test compound of Formula A-1, B-1, C-6 or C-7 in an incubation buffer (12.5 mM Tris, pH 7.6, 60 mM KCl, 1 mM MgCl2, 0.1 mM EDTA, 1 mM DTT, 5% glycerol, 0.1 mg/ml BSA) for 30 minutes at room temperature. Structures for A-1 and B-1 are shown above and structures for C-6 and C-7 are shown hereafter: [drawing 17] The resulting complexes were separated on a 6% DNA retardation gel using 0.5× TBE with 20 mM KCl as a running buffer (i.e., electrophoresis mobility shift assay (EMSA)).
(Mobility shift assays separate free from complexed probe on a gel.)

Assay [3] addresses IR(h) (Homo sapiens, UniProt P06213). The assay is described as follows: Protein kinase inhibition assay. In kind it is biochemical. To be noted: read-out: percent residual activity of IR(h). The method, then: as §1
In a final reaction volume of 25 μl, IR (h) (5-10 mU) is incubated with 50 mM Tris pH 7.5, 0.1 mM EGTA, 0.1 mM Na3VO4, 0.1% R-mercaptoethanol, 250 μM KKSRGDYMTMQIG (SEQ ID NO:210), 10 mM MnCl2, 10 mM MgAcetate and [gamma-33P-ATP] (specific activity approx. 500 cpm/pmol, concentration as required). The reaction is initiated by the addition of the MgATP mix. After incubation for 40 minutes at room temperature, the reaction is stopped by the addition of 5 μl of a 3% phosphoric acid solution. […]

For assay [4], the target named is MuSK(h) (Homo sapiens, UniProt O15146). The assay is described as follows: Protein kinase inhibition assay. In kind it is biochemical. Particulars: read-out: percent residual activity of MuSK(h). The method, then:
as §1
as §2, with “μl, MuSK” for “μl, ALK4”, “EDTA, 5 mM MnCl2, 0.33” for “EDTA, 2”, “mg/ml myelin basic protein,” for “mg/ml casein,”

Assay [5] concerns CaMKII(r). The assay is described as follows: Protein kinase inhibition assay. To be noted: 2.5 μM. In kind it is biochemical, rat. The method, then:
as §1
In a final reaction volume of 25 μl, CaMKII (r) (5-10 mU) is incubated with 40 mM HEPES pH 7.4, 5 mM CaCl2, 30 μg/ml calmodulin, 30 μM KKLNRTLSVA (SEQ ID NO:212), 10 mM MgAcetate and [gamma-33P-ATP] (specific activity approx. 500 cpm/pmol, concentration as required). The reaction is initiated by the addition of the MgATP mix. After incubation for 40 minutes at room temperature, the reaction is stopped by the addition of 5 μl of a 3% phosphoric acid solution. […]

For assay [6], the target named is PKCβI(h) (Homo sapiens, UniProt P05771). The assay is described as follows: Protein kinase inhibition assay. In kind it is biochemical. Particulars: read-out: percent residual activity of PKCβI(h). The procedure:
as §1
In a final reaction volume of […], PKCβI (h) (5-10 mU) is incubated with 20 mM HEPES pH 7.4, 0.03% Triton X-100, 0.1 mM CaCl2, 0.1 mg/ml phosphatidylserine, 10 μg/ml diacylglycerol, 0.1 mg/ml histone H1, 10 mM MgAcetate and [gamma-33P-ATP] (specific activity approx. 500 cpm/pmol, concentration as required). The reaction is initiated by the addition of the MgATP mix. After incubation for 40 minutes at room temperature, the reaction is stopped by the addition of 5 μl of a 3% phosphoric acid solution. […]

PKCβI(h), sequence (P05771 whole entry): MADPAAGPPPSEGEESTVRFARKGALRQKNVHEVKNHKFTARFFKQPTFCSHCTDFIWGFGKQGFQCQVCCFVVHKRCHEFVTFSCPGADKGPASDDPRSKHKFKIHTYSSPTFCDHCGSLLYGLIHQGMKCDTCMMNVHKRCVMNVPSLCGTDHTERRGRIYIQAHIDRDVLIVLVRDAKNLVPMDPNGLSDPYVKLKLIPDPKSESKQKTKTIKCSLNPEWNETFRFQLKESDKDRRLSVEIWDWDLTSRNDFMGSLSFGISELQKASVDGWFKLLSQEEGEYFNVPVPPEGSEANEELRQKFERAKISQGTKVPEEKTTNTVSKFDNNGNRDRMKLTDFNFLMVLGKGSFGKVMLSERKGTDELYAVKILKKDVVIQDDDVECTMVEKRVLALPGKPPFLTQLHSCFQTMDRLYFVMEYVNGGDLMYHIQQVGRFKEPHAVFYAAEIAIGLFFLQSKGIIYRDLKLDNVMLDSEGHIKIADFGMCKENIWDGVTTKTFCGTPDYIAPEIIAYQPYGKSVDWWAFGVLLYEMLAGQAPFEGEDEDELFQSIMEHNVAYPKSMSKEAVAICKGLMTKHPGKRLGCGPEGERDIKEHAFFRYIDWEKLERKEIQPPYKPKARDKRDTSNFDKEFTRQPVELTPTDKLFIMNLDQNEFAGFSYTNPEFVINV
IR(h), sequence (P06213 28-1382): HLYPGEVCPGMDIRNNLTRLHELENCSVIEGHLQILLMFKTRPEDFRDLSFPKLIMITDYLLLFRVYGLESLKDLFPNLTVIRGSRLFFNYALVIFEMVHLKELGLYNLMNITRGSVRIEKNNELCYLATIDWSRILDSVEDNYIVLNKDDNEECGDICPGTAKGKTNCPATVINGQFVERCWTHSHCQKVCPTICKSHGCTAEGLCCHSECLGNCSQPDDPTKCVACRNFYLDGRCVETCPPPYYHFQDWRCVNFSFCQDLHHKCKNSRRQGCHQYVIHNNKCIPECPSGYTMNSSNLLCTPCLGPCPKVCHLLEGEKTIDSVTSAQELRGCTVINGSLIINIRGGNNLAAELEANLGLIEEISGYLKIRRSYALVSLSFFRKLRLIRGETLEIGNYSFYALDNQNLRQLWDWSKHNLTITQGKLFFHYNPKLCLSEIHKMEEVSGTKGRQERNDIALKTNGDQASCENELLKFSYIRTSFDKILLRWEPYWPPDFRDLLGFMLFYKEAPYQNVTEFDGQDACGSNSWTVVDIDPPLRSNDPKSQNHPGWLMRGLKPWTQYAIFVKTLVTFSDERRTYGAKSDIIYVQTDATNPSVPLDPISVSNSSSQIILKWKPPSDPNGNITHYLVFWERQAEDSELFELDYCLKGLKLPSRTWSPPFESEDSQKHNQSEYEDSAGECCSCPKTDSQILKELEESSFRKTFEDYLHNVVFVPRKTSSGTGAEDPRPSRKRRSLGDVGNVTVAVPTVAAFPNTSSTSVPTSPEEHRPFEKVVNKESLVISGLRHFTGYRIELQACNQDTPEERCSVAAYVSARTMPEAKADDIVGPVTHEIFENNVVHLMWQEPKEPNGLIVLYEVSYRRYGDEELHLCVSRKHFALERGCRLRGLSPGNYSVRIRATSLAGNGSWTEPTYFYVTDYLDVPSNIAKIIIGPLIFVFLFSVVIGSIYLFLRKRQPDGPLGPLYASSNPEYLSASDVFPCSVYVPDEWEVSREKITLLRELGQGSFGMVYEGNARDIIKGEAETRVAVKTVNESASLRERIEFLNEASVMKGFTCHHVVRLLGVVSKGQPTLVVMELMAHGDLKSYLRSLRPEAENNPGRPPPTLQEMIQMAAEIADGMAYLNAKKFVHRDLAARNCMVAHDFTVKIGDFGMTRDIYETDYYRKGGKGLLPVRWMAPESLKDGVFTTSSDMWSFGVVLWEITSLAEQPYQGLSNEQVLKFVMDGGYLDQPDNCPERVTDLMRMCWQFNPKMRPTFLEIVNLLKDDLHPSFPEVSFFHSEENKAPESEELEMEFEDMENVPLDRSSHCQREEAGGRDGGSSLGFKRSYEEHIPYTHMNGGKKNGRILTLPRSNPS
MuSK(h), sequence (O15146 24-869): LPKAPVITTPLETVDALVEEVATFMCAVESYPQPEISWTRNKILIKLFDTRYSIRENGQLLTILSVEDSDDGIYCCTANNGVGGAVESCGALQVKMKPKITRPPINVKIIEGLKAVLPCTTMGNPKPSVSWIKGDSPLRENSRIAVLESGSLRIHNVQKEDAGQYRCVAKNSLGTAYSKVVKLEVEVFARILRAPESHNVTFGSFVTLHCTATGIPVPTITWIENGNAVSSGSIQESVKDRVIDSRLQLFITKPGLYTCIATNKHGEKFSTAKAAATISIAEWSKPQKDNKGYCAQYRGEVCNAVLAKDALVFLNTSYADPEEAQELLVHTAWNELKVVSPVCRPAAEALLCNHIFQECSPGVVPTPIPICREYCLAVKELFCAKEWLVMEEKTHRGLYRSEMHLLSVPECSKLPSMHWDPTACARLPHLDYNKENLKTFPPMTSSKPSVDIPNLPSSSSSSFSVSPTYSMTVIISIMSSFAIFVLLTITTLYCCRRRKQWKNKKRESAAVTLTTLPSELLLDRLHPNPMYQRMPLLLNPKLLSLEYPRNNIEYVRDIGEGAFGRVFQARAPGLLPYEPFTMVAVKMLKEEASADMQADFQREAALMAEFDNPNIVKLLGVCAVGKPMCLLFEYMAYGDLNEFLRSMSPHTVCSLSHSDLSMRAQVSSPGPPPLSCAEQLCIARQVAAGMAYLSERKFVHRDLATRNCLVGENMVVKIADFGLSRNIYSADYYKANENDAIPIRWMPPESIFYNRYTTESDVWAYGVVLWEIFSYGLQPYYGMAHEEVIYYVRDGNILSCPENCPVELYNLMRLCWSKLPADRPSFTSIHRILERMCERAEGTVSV
ALK4(h), sequence (P36896 24-505): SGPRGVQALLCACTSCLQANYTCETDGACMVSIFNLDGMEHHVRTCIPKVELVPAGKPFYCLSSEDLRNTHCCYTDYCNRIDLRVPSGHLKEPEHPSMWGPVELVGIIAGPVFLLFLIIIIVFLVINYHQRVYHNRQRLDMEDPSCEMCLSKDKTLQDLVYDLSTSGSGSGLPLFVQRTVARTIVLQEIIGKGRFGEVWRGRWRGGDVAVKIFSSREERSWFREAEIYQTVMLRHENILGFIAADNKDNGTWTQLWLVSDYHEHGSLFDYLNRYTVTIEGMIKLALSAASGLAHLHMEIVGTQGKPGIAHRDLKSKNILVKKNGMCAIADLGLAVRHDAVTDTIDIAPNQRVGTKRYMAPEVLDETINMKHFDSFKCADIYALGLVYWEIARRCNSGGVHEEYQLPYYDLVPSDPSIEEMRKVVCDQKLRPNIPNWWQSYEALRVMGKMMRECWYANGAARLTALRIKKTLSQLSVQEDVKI

Regarding `CN1CCCC1CCNC(=O)c1cn2c3c(c(N4CCC(c5cnccn5)C4)c(F)cc3c1=O)Oc1cc3ccccc3cc1-2` (stereo not drawn) [Compound A-1], the remaining activity at 2.5 µM in assay [1] was determined as 108%; in assay [3], 96%; in assay [4], 110%; in assay [6], 94%. In addition, the “interference with the nucleolin/HP ligand interaction” value in assay [2] is listed as “did not significantly interfere with the nucleolin/HP ligand interaction”. Also, in assay [5], the “percent residual activity of CaMKII(r)” value was 107%.
Turning to `CC(=O)N1CCN(c2ccc3c(=O)c(C(=O)NCCN4CCCC4)c4n(C)c5ccccc5n4c3n2)CC1` [Compound B-1], the remaining activity at 2.5 µM in assay [1] came to 103%; in assay [3] it was 110%; in assay [4], 108%; in assay [6], 97%. Moreover, the “interference with the nucleolin/HP ligand interaction” value in assay [2] is “did not significantly interfere with the nucleolin/HP interaction”. In assay [5], the “percent residual activity of CaMKII(r)” value is recorded as 113%.
